By IC50 is commonly meant the point on the concentration scale where inhibition reaches its midpoint. As a reminder, the EC50 is the midpoint of the concentration-response curve.

These results are taken from ChEMBL document CHEMBL1781871, “Discovery and SAR of novel mGluR5 non-competitive antagonists not based on an MPEP chemotype” (Bioorg Med Chem Lett, 2009).

Test [1] deals with T1, Metabotropic glutamate receptor 5 (Homo sapiens, UniProt P41594). The test is described as follows: Non-competitive antagonist activity at mGluR5. The class given is functional.
Target sequence in this assay (P41594 whole entry): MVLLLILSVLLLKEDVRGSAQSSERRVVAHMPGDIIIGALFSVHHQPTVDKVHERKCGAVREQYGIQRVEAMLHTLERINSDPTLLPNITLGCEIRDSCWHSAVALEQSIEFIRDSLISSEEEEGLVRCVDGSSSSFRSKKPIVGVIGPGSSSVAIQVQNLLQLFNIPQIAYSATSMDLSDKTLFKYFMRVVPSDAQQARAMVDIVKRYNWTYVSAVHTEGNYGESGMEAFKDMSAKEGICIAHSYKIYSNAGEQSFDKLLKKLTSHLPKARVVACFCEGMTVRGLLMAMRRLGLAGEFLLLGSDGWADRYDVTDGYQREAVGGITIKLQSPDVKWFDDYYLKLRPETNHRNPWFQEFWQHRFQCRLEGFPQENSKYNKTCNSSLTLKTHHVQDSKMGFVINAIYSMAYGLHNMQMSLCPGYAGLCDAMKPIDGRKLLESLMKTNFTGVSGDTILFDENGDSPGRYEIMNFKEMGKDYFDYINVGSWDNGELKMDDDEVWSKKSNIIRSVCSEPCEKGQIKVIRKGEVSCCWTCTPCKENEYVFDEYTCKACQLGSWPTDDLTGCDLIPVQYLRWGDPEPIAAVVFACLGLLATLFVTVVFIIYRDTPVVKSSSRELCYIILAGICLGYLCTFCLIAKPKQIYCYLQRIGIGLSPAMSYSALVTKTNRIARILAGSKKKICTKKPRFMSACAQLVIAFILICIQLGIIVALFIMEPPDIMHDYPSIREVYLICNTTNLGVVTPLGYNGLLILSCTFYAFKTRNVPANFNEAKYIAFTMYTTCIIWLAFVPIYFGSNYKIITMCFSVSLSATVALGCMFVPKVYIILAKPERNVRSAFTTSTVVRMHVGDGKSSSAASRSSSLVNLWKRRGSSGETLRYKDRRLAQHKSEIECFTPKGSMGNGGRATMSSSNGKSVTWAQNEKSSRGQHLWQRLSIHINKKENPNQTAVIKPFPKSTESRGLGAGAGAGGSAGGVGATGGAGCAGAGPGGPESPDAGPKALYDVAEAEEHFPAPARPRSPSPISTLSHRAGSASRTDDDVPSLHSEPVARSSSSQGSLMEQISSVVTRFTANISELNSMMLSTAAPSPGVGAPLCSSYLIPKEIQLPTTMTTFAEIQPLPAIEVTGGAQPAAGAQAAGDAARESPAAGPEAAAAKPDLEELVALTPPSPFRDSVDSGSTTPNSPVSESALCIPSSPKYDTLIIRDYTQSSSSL
Test [2] has as its target T1, Metabotropic glutamate receptor 5. The test is described as follows: Non-competitive antagonist activity at mGluR5 at 30 uM relative to glutamate. Also noted: scale not given: the % may be the effect or the level left. The class given is functional.
Target sequence in this assay (P41594 21-1212 limits assumed): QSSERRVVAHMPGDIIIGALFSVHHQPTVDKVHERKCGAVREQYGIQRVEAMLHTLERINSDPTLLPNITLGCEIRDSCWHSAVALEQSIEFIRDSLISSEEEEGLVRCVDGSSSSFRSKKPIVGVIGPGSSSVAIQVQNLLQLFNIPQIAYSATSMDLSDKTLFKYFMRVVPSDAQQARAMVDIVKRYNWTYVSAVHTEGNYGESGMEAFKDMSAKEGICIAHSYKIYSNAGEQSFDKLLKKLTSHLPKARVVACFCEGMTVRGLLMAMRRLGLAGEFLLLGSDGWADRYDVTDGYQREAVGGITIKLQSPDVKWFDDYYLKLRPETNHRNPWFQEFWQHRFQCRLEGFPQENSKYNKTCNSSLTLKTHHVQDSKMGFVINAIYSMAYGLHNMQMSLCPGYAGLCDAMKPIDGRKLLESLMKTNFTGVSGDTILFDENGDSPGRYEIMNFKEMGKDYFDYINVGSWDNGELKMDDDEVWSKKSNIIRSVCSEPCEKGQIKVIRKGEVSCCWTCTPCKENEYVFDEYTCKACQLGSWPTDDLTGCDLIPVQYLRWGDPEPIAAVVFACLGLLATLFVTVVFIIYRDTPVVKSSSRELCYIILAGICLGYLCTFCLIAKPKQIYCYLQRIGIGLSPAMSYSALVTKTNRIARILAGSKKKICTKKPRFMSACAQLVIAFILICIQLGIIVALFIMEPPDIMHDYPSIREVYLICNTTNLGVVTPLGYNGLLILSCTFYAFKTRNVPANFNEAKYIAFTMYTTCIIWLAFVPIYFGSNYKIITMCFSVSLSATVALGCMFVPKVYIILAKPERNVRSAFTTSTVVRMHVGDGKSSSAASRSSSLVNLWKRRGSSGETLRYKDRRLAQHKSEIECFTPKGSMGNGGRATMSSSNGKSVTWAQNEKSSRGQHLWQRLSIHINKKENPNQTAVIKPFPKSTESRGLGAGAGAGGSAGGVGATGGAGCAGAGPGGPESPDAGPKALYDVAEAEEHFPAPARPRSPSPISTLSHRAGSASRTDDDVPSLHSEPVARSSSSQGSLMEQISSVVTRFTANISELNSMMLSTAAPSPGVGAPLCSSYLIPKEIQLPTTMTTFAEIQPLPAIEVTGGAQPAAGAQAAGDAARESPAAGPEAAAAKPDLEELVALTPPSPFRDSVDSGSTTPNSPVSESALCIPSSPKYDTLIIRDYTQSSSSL
For test [3] the target is unchanged. The test is described as follows: Positive allosteric modulation of mGluR5.
Target sequence in this assay (P41594 whole entry): as the sequence (P41594 whole entry) above
Test [4] has the same target. The test is described as follows: Positive allosteric modulation of mGluR5 at 30 uM relative to glutamate.
Target sequence in this assay (P41594 21-1212 limits assumed): as the sequence (P41594 21-1212 limits assumed) above
In test [5] the target is Metabotropic glutamate receptor 1 (Homo sapiens, UniProt Q13255). The test is described as follows: Inhibition of mGluR1.
In test [6] the target is Metabotropic glutamate receptor 4 (Homo sapiens, UniProt Q14833). Description: Inhibition of mGluR4.
Test [7] deals with Metabotropic glutamate receptor 7 (Homo sapiens, UniProt Q14831). The test is described as follows: Inhibition of mGluR7.
Test [8] has as its target Metabotropic glutamate receptor 8 (Homo sapiens, UniProt O00222). Description: Inhibition of mGluR8.
The target in test [9] is Metabotropic glutamate receptor 2 (Homo sapiens, UniProt Q14416). The test is described as follows: Inhibition of mGluR2.
Test [10] concerns the target Metabotropic glutamate receptor 3 (Homo sapiens, UniProt Q14832). The test is described as follows: Inhibition of mGluR3.

Sequence of Metabotropic glutamate receptor 2 (Q14416 whole entry): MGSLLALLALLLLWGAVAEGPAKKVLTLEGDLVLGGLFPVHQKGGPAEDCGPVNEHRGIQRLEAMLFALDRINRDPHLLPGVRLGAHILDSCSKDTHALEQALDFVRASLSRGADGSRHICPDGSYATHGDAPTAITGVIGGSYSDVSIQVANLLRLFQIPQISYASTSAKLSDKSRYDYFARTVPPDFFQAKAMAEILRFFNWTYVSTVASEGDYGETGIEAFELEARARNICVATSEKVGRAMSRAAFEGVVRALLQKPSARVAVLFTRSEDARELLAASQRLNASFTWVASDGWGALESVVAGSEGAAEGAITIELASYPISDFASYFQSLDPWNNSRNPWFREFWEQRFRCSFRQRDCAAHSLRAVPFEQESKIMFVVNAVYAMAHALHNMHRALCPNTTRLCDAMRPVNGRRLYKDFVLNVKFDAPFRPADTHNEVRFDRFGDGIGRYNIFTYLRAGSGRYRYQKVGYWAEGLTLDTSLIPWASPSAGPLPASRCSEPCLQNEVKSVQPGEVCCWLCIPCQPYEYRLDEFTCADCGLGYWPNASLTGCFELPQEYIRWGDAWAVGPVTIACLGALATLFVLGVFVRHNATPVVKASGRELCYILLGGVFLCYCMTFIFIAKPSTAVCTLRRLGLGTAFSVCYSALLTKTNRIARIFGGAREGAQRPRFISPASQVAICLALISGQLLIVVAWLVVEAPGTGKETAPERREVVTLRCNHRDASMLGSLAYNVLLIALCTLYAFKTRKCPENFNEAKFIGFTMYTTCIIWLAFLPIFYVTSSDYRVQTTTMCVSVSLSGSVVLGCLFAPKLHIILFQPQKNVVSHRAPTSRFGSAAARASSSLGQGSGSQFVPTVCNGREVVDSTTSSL
Sequence of Metabotropic glutamate receptor 3 (Q14832 whole entry): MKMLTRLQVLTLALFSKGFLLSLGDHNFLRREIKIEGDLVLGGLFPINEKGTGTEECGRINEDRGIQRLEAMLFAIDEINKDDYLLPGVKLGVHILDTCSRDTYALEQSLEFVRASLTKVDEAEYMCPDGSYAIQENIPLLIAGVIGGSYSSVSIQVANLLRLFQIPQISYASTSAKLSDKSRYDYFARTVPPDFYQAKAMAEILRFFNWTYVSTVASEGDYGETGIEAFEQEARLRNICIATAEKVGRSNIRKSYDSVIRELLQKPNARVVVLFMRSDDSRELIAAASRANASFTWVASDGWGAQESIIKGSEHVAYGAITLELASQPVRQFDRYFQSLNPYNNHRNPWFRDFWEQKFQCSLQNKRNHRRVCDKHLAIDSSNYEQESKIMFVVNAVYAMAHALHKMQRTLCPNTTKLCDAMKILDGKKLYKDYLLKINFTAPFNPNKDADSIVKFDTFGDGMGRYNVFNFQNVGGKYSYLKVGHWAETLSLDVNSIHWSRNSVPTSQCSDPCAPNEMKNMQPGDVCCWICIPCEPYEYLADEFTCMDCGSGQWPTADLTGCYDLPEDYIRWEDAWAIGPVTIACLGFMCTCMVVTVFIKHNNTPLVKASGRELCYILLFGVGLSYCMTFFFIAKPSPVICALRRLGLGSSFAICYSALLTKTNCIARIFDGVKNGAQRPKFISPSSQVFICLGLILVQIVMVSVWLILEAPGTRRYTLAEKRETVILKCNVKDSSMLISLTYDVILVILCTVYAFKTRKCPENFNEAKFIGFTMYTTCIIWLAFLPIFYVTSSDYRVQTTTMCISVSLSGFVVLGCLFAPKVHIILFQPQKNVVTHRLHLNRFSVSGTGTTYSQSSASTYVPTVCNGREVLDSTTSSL

`O=C(Cc1cccs1)N1CCCC2(CCCCC2)C1` had an IC50 in test [1] above 10 µM. In addition, in test [2], the Activity was 52.1%.
In test [1], `Cc1cc(C)c2c(N)c(C(=O)c3ccc(F)cc3F)oc2n1` yielded an IC50 of 9.3 µM. In [2], this compound had an Activity of 19.4%.
`Nc1c(C(=O)c2ccc(F)cc2)oc2ncc(Br)cc12` showed an EC50 in test [3] of 7.6 µM. This compound also had an Activity in test [4] of 73.5%.
`Cc1cc(C(F)(F)F)c2c(N)c(C(=O)c3ccc(F)cc3)oc2n1` returned an IC50 in test [1] of 0.84 µM. The compound also displayed an Activity in test [2] of 1.58%.
With `O=C(C1CCC1)N1CCCC2(CCCCC2)C1`, the IC50 in test [5], in [6], in [7], in [8], in test [9] and in test [10] was above 30 µM each time. This compound also registered an Activity in test [2] of 1.12%.
In test [1], `O=C(C1CCCC1)N1CCCC2(CCCCC2)C1` came in with an IC50 above 10 µM. Also, the Activity in [2] came to 26.1%.
Compound `O=C(C1CCCCC1)N1CCCC2(CCCCC2)C1` came in with an IC50 in test [1] above 30 µM.
On to `Cc1cc(O)nc2oc(C(=O)c3ccc(F)cc3)c(N)c12`, for which the Activity in [4] came out at 32.9%.
In test [1], `O=C(N1CCN(c2ccccc2Cl)CC1)C12CC3CC(CC(C3)C1)C2` gave an IC50 above 30 µM.
Take `O=C(N1CCN(c2cccnc2)CC1)C12CC3CC(CC(C3)C1)C2`: in [1], the IC50 was above 10 µM. In addition, in test [2], the Activity was 30.2%.
On to `O=C(c1cnc2ccccc2n1)N1CCCC2(CCCCC2)C1`, for which the IC50 in [1] was determined as 5.02 µM. Also, in [2], the Activity was 2.39%.
Turning to `O=C(c1cccs1)N1CCCC2(CCCCC2)C1`, in test [1], the IC50 amounted to 1.18 µM. In test [2], this compound registered an Activity of 2.69%.
Take `COc1ccccc1N1CCN(C(=O)C23CC4CC(CC(C4)C2)C3)CC1`: in test [1], the IC50 is above 10 µM. The same compound yielded an Activity in [2] of 52%.
For `O=C(c1cccnc1)N1CCCC2(CCCCC2)C1`, in [1], the IC50 is above 30 µM.
In the case of `O=C(N1CCN(c2ccccn2)CC1)C12CC3CC(CC(C3)C1)C2`, the IC50 in [1] stood at 0.99 µM. This compound gave an Activity in test [2] of 3.75%.
In the case of `O=C(N1CCN(c2nccs2)CC1)C12CC3CC(CC(C3)C1)C2`, the IC50 in test [6], in test [7], in test [8], in test [9] and in [10] was above 30 µM throughout. In addition, the Activity in [2] worked out at 1.16%.
`O=C(N1CCN(c2ccncc2)CC1)C12CC3CC(CC(C3)C1)C2` displayed an IC50 in test [1] above 30 µM.
Regarding `Cc1ccc(C(=O)N2CCCC3(CCCCC3)C2)cc1`, the IC50 in [1] was above 10 µM. In test [2], this compound came in with an Activity of 56.2%.
In turn, `O=C(CSc1ccccc1)N1CCCC2(CCCCC2)C1` yielded an Activity in [2] of 4.23%.
For `O=C(C1CC1)N1CCCC2(CCCCC2)C1`, in [1], the IC50 was above 10 µM. The compound also gave an Activity in test [2] of 40.6%.
`N#Cc1ccccc1N1CCN(C(=O)C23CC4CC(CC(C4)C2)C3)CC1` had an Activity in test [2] of 3.68%.
In test [3], `Cc1cc(=O)[nH]c2oc(C(=O)c3ccc(F)cc3)c(N)c12` returned an EC50 of 6.1 µM.
`O=C(c1ccco1)N1CCCC2(CCCCC2)C1`: the IC50 in [1] came out at 1.54 µM. This compound also gave an Activity in test [2] of 2.64%.
In test [1], `Cc1cc(C)c2c(N)c(C(=O)c3ccccc3)oc2n1` returned an IC50 above 10 µM. In [2], the Activity worked out at 36%.
In turn, `COCc1c(Cl)c(C)nc2oc(C(=O)c3ccc(F)cc3)c(N)c12` yielded an EC50 in test [3] of 6.5 µM. Further, the Activity in test [4] was 38.3%.
